Results: publication PMC8996149 (Acta Crystallographica. Section F, Structural Biology …, 2022)

B1: Alpine soil metagenome-derived salicylaldehyde dehydrogenase (SALDAP) (enzyme)
chain: MRGLTVNFERINPMTNQTASTAKAMTAAEARAVADRAAAGFAGWSVLGPNARRAVLMKAAAALEARKDDFVQAMMAEIGATAGWAMFNLMLAASMIREAAALTTQIGGEVIPSDKPGCLALALREPVGVVLGIAPWNAPIILGVRAIAVPLACGNAVILKASEICPRTHGLIIESFAEAGFPEGVVNVVTNAPQDAGEVVGALIDHPAVKRINFTGSTGVGRIIAKRAAEHLKPCLLELGGKAPLVVLDDADLDEAAKAAAFGAFMNQGQICMSTERIIVVEAIAAEFTRRFAAKAQSMATGDPREGKTPLGAVVDRKTVDHVNTLIDDATAKGARIIAGGKGDSVLMSATVVDGVTAAMKLYRDESFGPIVGIIRAKDEADAVRLANDSEYGLAAAVFTRDTARGLRVARQIRSGICHINGPTVHDEAQMPFGGVGASGYGRFGGKAGIDQFTELRWITMETQPGHFPI
notes: salicylaldehyde dehydrogenase SALDAP (EC 1.2.1.65) from an alphaproteobacterium, gene found by gene-targeted assembly in an Alpine soil metagenome; The pLATE51 vector adds the N-terminal 6×His tag; also called 6×His-SALDAP; 6×His SALDAP; not shown: 6×His, N-terminal, kept

Tests used:
[1] = molecular target: T1, SALDAP (Alpine soil metagenome-derived salicylaldehyde dehydrogenase) (soil metagenome, UniProt Z9QUQ6R3A5); assay: X-ray crystal structure, […] Å; format: binding; details: active site, one ligand per monomer; ligand identity chosen by best fit to electron density (putative), no ligand added to the drop is told; pH 4.6
T1 construct: pLATE51, N-terminal 6xHis tag (no cleavage told), E. coli BL21 (DE3), purified; homodimer about 115 kDa; EC 1.2.1.65

[2] = molecular target: T1, SALDAP (Alpine soil metagenome-derived salicylaldehyde dehydrogenase); assay: differential scanning fluorimetry (SYPRO Orange); format: binding; details: 2 mM ligand, 6 µM enzyme, 50 mM HEPES pH 7.4; no NAD+; untreated enzyme Tm 67.9 ± 0.17 °C
Description: differential scanning fluorimetry (SYPRO Orange) on SALDAP (Alpine soil metagenome-derived salicylaldehyde dehydrogenase)

[3] = molecular target: the molecule itself; assay: SEC; analytical gel filtration on Sephacryl S-300 (K 9/30 column), 50 mM Tris-HCl, 17 mM Tris base, 150 mM NaCl pH 7.4, calibrated with standard proteins; mass estimated from the elution volume

Molecule | X-ray crystal structure, 1.9 Å [1] | Melting temperature (T m) (°C) [2] | stoichiometry N [3]
O=C(O)c1ccc(O)c(O)c1 [protocatechuic acid] | protocatechuic acid (PCA) was chosen as the ligand bound to the active site | 69.2 ± 0.25 °C | 
B1 |  |  | 2
